# Where two headings read alike, the source gives them in different places.
# Legend:
# MRC5-SV2 cell line [1] = conditions: printed in Fig 4; ref [16]; cited from earlier work
# T. b. brucei [2] = conditions: cited from earlier work; for T.b.b. pEC50: data from original HTS, ref [13]
# [3] = test system: S. mansoni adults and somules; assay: S. mansoni phenotypic assay, adults and somules (severity score); type: cell-based, Schistosoma mansoni (NMRI isolate); conditions: for Adult severity score (10 μM): adults; for Adult severity score (10 μM) / Somule severity score (10 μM): score 0-4; for Somule severity score (10 μM): somules
# Description: Maintenance of the Schistosoma mansoni life cycle, preparation of somules (post-infective larvae) and adult worms (≥42-days-old), and co-incubation of these stages with test compounds were as described. An NMRI isolate of S. mansoni was used for all whole-organism screens.
# Somules (40 units/well/96w round-bottomed plate) or adults (five paris/well/24w plate) were cultured in the presence of compounds at 10 µM and phenotypic changes observed as a function of time using an Zeiss Axiovert A1 inverted microscope (Table S4). A constrained nomenclature was used to describe the effects of compounds on parasites (changes in shape, motility and density). To generate a partially quantitative output for comparing drug effects, each descriptor was awarded a score of 1 and these were summed to a maximum score of 4 [7-10]: evidence of degeneracy or death was awarded the maximum score of 4. For adults specifically, damage to the tegument (outer surface) was also awarded a score of 4 based on the indication that damage to the patrasite’s surface is lethal in vivo [11]. Assays were performed twice and representative data are shown.
# [4] = design: method as in PMID 25340575; conditions: data from original HTS; ref [13]; cited from earlier work
# L. donovani = assay: EC50 in L. donovani (infected THP-1 macrophages, luciferase); type: cell-based, Leishmania donovani MHOM/ET/67/HU3; conditions: 72 h; for EC50: Leishmania donovani, read-out: L. donovani pEC50 (converted)
# Description: Leishmania donovani MHOM/ET/67/HU3 cells with the luciferase gene integrated into the parasite genome[1] were grown at 28 °C in RPMI 1640-modified medium (Invitrogen) supplemented with 20% FBS with […] of hygromycin B.
# The Human myelomonocytic cell line THP-1 was grown at 37 °C and 5% CO2 in RPMI-1640 supplemented with 10% iFBS, 2 mM […], 100 U/mL penicillin and […] streptomycin. 3 x 10^4 THP-1 cells per well in 96-well plates were differentiated to macrophages with 20 ng/mL of PMA treatment for 48 h followed by 24 h of culture in fresh medium.
# Macrophage-differentiated THP-1 cells were infected at a macrophage/parasite ratio of 1/10 with stationary L. donovani promastigotes for 24 h at 35 °C and 5% CO2, and extracellular parasites were removed by washing with PBS. Infected cell cultures were then incubated with different compounds concentrations at 37 °C for 72 h. Luminescence was measured using the Promega kit luciferase assay system (Promega, Madison, WI). Assays were performed in duplicate at least twice, to achieve a minimal n=3 per dose response.
# T. cruzi = assay: β-D-Galactosidase transgenic T. cruzi assay (amastigote-infected L6 cells); type: cell-based, T. cruzi Tulahuen C4 strain; conditions: 96 h; for EC50: Trypanosoma cruzi, read-out: T. cruzi pEC50 (converted)
# Description: The T. cruzi Tulahuen C4 strain, expressing the β-galactosidase gene (LacZ) and L6 rat skeletal muscle cells, used as host cells, were cultured in RPMI-1640 supplemented with 10% iFBS, 2 mM L-glutamine, 100 U/mL penicillin, and 100 μg/mL streptomycin at 37 °C and 5% CO2.
# A Thermo Scientific Multidrop Combi dispenser (MTX Lab Systems, Vienna, VA) was used to dispense 90 μL of T. cruzi amastigote–infected L6 cell culture (4×10^3 infected L6 cells per well) into 96-well Corning assay plates (Corning Inc., Corning, NY) already containing 10 μL of the compounds to be screened and controls. The plates were incubated at 37 °C for 96 h. Then, 30 μL of 100 μM CPRG and 0.1% NP40 diluted in PBS were added to each well, and the plates were incubated for 4 h at 37 °C in the dark. Absorbance at 585 nm was measured in a Vmax kinetic microplate reader ([…]). Compound activities were normalized using the in-plate negative (benznidazole at 10 μg/mL) and positive (0.2% DMSO) growth controls.
# MRC5-SV2 cell line [5] = assay: Cytotoxicity assay in MRC5 (resazurin, 48 h); type: cell-based, human; conditions: MRC5 toxicity
# Description: For dose-response experiments, compound plates were prepared for each analogue by serial 3-fold dilutions in 100% DMSO. Five concentration points (mammalian cytotoxicity) or ten concentration points (parasite growth inhibition), were made in 96-well transparent Nunclon plates. Pentamidine is routinely included in compound plates as internal quality control, and plates are stored sealed at -20 °C for no more than four weeks. Intermediate plates were made as described, adding 95 μL of DMEM complete media to 5 μL of compound per well setting a 5% DMSO amount. Log-phase MRC5 cells were removed from a T-75 TC flask using TrypLE® Express (Thermo®) and dispersed by gentle pipetting. Cell density was adjusted to working concentration in prewarmed DMEM medium: 25,000 cells in 90 μL of culture were plated in 96-well transparent Nunclon plates and let to settle for 24 h at 37 °C and 5% CO2. After settling incubation, 10 μL of fresh made intermediate plate were added per well: final maximal concentration for compounds was 50 μM in 0.5% DMSO per well. […] Fluorescence was read in an Infinite F200 plate reader (Tecan®) at 550 nm (excitation filter) and 590 nm (emission filter). A 4-parameter equation was used to fit the dose-response curves and determination of EC50 by SigmaPlot ® 13.0 software. Assays were performed in duplicate at least twice for positive compounds, to achieve a minimal n=3 per dose response.
# [6] = Aqueous pH 7.4 solubility; type: physicochemical; conditions: aqueous buffer, thermodynamic from solid; pH 7.4 phosphate buffer, 25 °C, 20-24 h; read-out: Aq. Solubility
# Description: Compounds are dried down from 10 mM DMSO solutions using centrifugal evaporation technique. Phosphate buffer (0.1 M pH 7.4) added and StirStix inserted in the glass vials, shaking is then performed at a constant temperature of 25 °C for 20-24 h. This step is followed by double centrifugation with a tip wash in between, to ensure that no residues of the dried compound are interfering. The solutions are diluted before analysis and quantification using LC/MS/MS is performed.
# [7] = Shake-flask octanol-water Log D7.4; type: physicochemical; conditions: pH 7.4, octanol-water shake-flask
# Description: Shake-flask octanol-water distribution coefficient at pH 7.4 (Log D7.4). The aqueous solution used is 10 mM sodium phosphate pH 7.4 buffer. The method has been validated for Log D7.4 ranging from -2 to 5.0.
# [8] = Human plasma protein binding (equilibrium dialysis); type: in vitro ADME
# Description: PPB is determined using equilibrium dialysis (RED device) to separate free from bound compound. The amount of compound in plasma (10 µM initial concentration) and in dialysis buffer (pH 7.4 phosphate buffer) is measured by LC-MS/MS after equilibration at 37 °C in a dialysis chamber. The fraction unbound (fu) is reported.
# T. b. brucei [9] = assay: T. b. brucei growth inhibition EC50 assay (resazurin, 72 h); type: cell-based, Trypanosoma brucei brucei Lister 427
# Description: Mid-log phase growth T. b. brucei was diluted to a working cell density of 2,750 cells/mL and 90 μL/well dispensed into 96-well flat-bottom transparent assay plates (Nunc). Ten μL/well from intermediate plates were added. The final top concentration of compounds was 40 μM in 0.4% DMSO per well.
# Assay plates were incubated for 72 h at 37°C and 5% CO2. Four hours prior to the end of the incubation, 20 μL of a 440 μM resazurin solution in prewarmed HMI-9 was added to each well and incubated for another 4 h. Fluorescence was then measured in an Infinite F200 plate reader (Tecan) at 550 nm (excitation filter) and 590 nm (emission filter). A 4-parameter equation was employed to fit the dose-response curves and determine of EC50 using the SigmaPlot 13.0 software. Assays were performed in duplicate at least twice, to achieve a minimal n = 3 per dose response.
# Bloodstream Trypanosoma brucei brucei Lister 427 was cultured in Hirumi’s modified Iscove’s medium (HMI-9), supplemented with 10% heat-inactivated FBS, at 37 °C and 5% CO2 in T-25 vented flask (Corning®).
# For dose-response experiments, compound plates were prepared for each analogue by serial 3-fold dilutions in 100% DMSO. Five concentration points (mammalian cytotoxicity) or ten concentration points (parasite growth inhibition), were made in 96-well transparent Nunclon plates. Pentamidine is routinely included in compound plates as internal quality control, and plates are stored sealed at -20 °C for no more than four weeks.
# [10] = Human liver microsomal CLint; type: in vitro ADME; conditions: human liver microsomes
# Description: In vitro intrinsic clearance determined from human liver microsomes using a standard approach. Following incubation and preparation, the samples are analyzed using LC/MS/MS.
# Rat hepatocyte CLint = type: in vitro ADME; conditions: rat hepatocytes
# Description: In vitro intrinsic clearance determined from rat hepatocytes using a standard approach. Following incubation and preparation, the samples are analyzed using LC/MS/MS.
compound,measurement,setting,value
"CCS(=O)(=O)Nc1ccc2c(c1)/C(=C(/Nc1ccc(CN3CCCCC3)cc1)c1ccccc1)C(=O)N2 [Hesperadin, reference compound]",MRC5 pTC50,MRC5-SV2 cell line [1],6.69
same,T.b.brucei pEC50,"T. b. brucei [2]; printed in Fig 4, ref [16]",7.22
CC(C)=Cc1cccc2c1C(=NNc1ccc(S(N)(=O)=O)cc1)C(=O)N2 [NEU-1183],activity against S. mansoni adults and/or somules,[3]; 10 μM,moderate and variable activity
same,Adult severity score (10 μM),[3]; 3h,2
same,Adult severity score (10 μM),[3]; 6h,2
same,Adult severity score (10 μM),[3]; 24h,2
same,Adult severity score (10 μM),[3]; 48h,2
same,Somule severity score (10 μM),[3]; 24h,1
same,Somule severity score (10 μM),[3]; 48h,4
same,Kinetic aq. solubility,[4],<5 µM
same,EC50,L. donovani,> 5.01 µM
same,EC50,T. cruzi,0.724 µM
same,T.b.b. pEC50,T. b. brucei [2],7.6
NS(=O)(=O)c1ccc(N/N=C2\C(=O)Nc3ccc4ncccc4c32)cc1 [NEU-1184],Kinetic aq. solubility,[4],7.7 µM
same,T.b.b. pEC50,T. b. brucei [2],7.1
NS(=O)(=O)c1ccc(N/N=C2\C(=O)Nc3ccc(-c4cnco4)cc32)cc1 [NEU-1185],Kinetic aq. solubility,[4],18 µM
same,T.b.b. pEC50,T. b. brucei [2],6.4
"O=C1Nc2ccccc2C1=NNc1ccccc1 [NEU-2116, (Z)-3-(2-Phenylhydrazono)indolin-2-one]",Adult severity score (10 μM),[3]; 3h,0
same,Adult severity score (10 μM),[3]; 6h,0
same,Adult severity score (10 μM),[3]; 24h,0
same,Adult severity score (10 μM),[3]; 48h,1
same,Somule severity score (10 μM),[3]; 24h,0
same,Somule severity score (10 μM),[3]; 48h,0
same,MRC5 pTC50,MRC5-SV2 cell line [5],<4.3
same,solubility,[6],< 2 µM
same,logD,[7],> 3.8
same,fraction unbound at 10 µM,"[8]; pH 7.4, read-out: PPB (converted)",< 0.02
same,EC50,L. donovani,> 10 µM
same,EC50,T. cruzi,> 10 µM
same,EC50,"T. b. brucei [9]; Trypanosoma brucei, 72 h, read-out: T.b.b. pEC50 (converted)",12.6 µM
same,microsomal CLint,[10]; read-out: HLM Clint,184 µL/min/mg
(Z)-3-(2-(4-((Piperidin-1-ylmethyl)sulfonyl)phenyl)hydrazineylidene)indolin-2-one [NEU-4893],Rat Hepatocyte Clint,Rat hepatocyte CLint,148 µL/min/10^6 cells
same,MRC5 pTC50,MRC5-SV2 cell line [5],<4.3
same,LogD (7.4),[7],2.2
same,PPB,[8]; 10 µM,90%
same,L. donovani pEC50,L. donovani,<5.30
same,T. cruzi pEC50,T. cruzi,<4.70
same,activity against T. brucei,T. b. brucei [9],inactive
same,T.b.b. pEC50,"T. b. brucei [9]; 72 h, resazurin, error within ±0.20 (Table 2) or ±0.08 (Table 3) log units",5.0
same,HLM Clint,[10],<3 µL/min/mg
